Measured values reported in US20240238787A1, “PLATE ASSAY DEVICE AND METHOD FOR IN SITU IMAGING” (Duke University, priority 2023, published 2024).

How the values were obtained:
[1] = test system: P. aeruginosa PA14 biofilm; assay: antibiotic challenge of biofilm on ziggurat peg lid (modified ASTM E2799-22), OD 600 reading and CFU count after sonication; assay type: cell-based, Pseudomonas aeruginosa PA14; details: peg 110, vs no antibiotic; for reduction in CFU on a per area basis: 24 h challenge; for OD600 mean reduction: biofilm recovered in PBS by sonication
Description: The applicability lid having pegs 110 with a ziggurat shape was evaluated to the relevant ATSM standard, E2799-22, modified workflow FIG. 6. Specifically, the pegs 110 were inoculated in a 24-well plate with media at step 300 and incubated at step 304. At step 308, the pegs 110 were then challenged with antibiotics and then incubated again at step 312. At step 316, the pegs were washed or rinsed and, at step 320, placed in PBS for imaging. The pegs 110 were sonicated, at step 324, to remove attached biofilm, which was quantified using OD 600 reading, at step 328, and a CFU count, at step 332. Importantly, the lid 100 could be handled in the same fashion as the commercially available peg lid. The pegs 110 were less rigidly attached to the lid 100 than the commercially available peg lid and could be broken off easily for a biofilm growth check, although due to the ring of biofilm at the air-medium interface typical of wild-type PA14, this could also be verified visually. Due to the design, it was also possible to image in situ. With respect to FIGS. 7A-7D, after imaging, OD 600 and CFU counts were performed to verify no loss of function between the lid 100 optimized for imaging and the commercially available peg lid. Specifically, the raw data and mean difference versus no antibiotics are shown for 100 μg/mL tetracycline, 10 μg/mL tetracycline on an OD 600 basis on the MBEC® Assay (FIG. 7A), the modified plate (FIG. 7B), and on a CFU/mm2 for PA14 (FIG. 7C). […] PA14 was grown on pegs in TSB for 24 hours before recovery. Wells were categorized as “inside” (e.g., those on the dash-dot line) or “outside” (e.g., those on the dashed line) according to the layout in FIG. 9B. The mean differences was plotted using bootstrap sampling distributions and 95% confidence interval is indicated by the ends of the vertical error bars using EstimationStats.
Experiments were conducted using Pseudomonas aeruginosa PA14, which constitutively expressed GFP. Cultures were grown over-night in tryptic soy broth (VWR International, USA) at 37° C. and 150 rpm. 10 μL of the overnight culture was used to inoculate 50 mL of fresh TSB. The growth plate (24 well, VWR International, USA) was prepared by dispensing […] of broth per well, adding the peg lid 100, and incubating for 24 h at 37° C. and 100 rpm. […]
Transfers between media and rinse plates were accomplished by lifting the peg lid 100, allowing excess liquid to drip off, and gently placing the lid 100 in the new plate. […] The efficacy of removal from the surface by sonication as not tested, however the resultant OD600 readings for P. aeruginosabetween this and the MBEC® assay were similar […]

[2] = test system: P. aeruginosa PA14 biofilm streamers; assay: in situ confocal laser scanning microscopy of biofilm and biofilm streamers on ziggurat peg after antibiotic challenge; assay type: cell-based, Pseudomonas aeruginosa PA14; details: 10 μg/mL
From the text: The intent of this peg 110 is to optimize for in situ confocal imaging. Two imaging techniques were applied to evaluate this. With respect to FIG. 8B, the surface 128i of the distal-most portion 128i of the peg 110 was captured using a tile and z-stack approach. The biomass formed on the edges of the peg 110 and, in the “no antibiotic” samples, could be thick enough to scatter the fluorescent light emission. FIG. 8B illustrates selected 3D tiles of the surface of the surface 128i of the peg 110 with an area of 8.042 mm2. This is known to leave imaging artifacts resembling “holes” in the images observed in FIG. 8B (e.g., “No antibiotic”). Streamers, are often formed in this area. […] With respect to FIGS. 8A and 8C, the surface biomass on the second end 116 analyzed using COMSTAT 2.1 was plotted using EstimationStats. With respect to FIGS. 8D and 8F, the biomass on the second step 128h of the step analyzed using COMSTAT 2.1 was plotted using EstimationStats. […]
Pegs 110, 150, 160, 170, 180, 190 were imaged in PBS with an inverted Zeiss LSM 900 (Zeiss, Germany) using a 488 nm laser for excitation and detection wavelengths of […] (green) for GFP and 590-700 nm (red) for identifying autofluorescence. […] Biomass quantification of antibiotic plate images was performed using Comstat2 v2.1 as an ImageJ plugin. […]

## CN(C)[C@@H]1C(O)=C(C(N)=O)C(=O)[C@@]2(O)C(O)=C3C(=O)c4c(O)cccc4[C@@](C)(O)[C@H]3C[C@@H]12 [tetracycline]
[1]; 10 μg/mL tetracycline
  reduction in CFU on a per area basis: 0 fold
  OD600 mean reduction: 0.02
[1]; 100 μg/mL tetracycline
  reduction in CFU on a per area basis: 3 fold
  OD600 mean reduction: 0.03
[2]; no antibiotic streamer 309.09±10.43 μm
  streamer midpoint diameter as % of the no antibiotic streamer: 12.96%
[2]; streamer between surface 128i and step 128h, FIG. 8E
  approximate midpoint diameter of biofilm streamer: ~40.05±11.98 μm
